Measurements as given in patent US12528816B2, “Substituted imidazo [1,2-b] pyridazines and [1, 2, 4] triazolo [ 4,3-b] pyridazines as camkii inhibitors” (Cardurion Pharmaceuticals, INC., priority 2020, dated 2026).

What follows are compounds tested against T1, human CaMKIIδ (Homo sapiens, UniProt Q13557) (assay: Evaluation of in vitro CaMKII inhibitory activity (binding assay, TR-FRET)). Settings: human CaMKIIδ, TR-FRET binding assay; class symbols A/B/C; read-out: Act (CaMKII inhibitory activity, binding assay).
T1 construct: Full-length, glutathione-S-transferase(GST)-tagged, human CaMKIIδ was purchased from Carna Biosciences; purchased Carna Biosciences (CaMKIIδ); Wako Pure Chemical Industries (calmodulin) 02-111
In short: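 Inhibitors, in eight concentrations of 4-fold dilution, were incubated 1 h at room temperature with a protein–fluorescent probe premix preformed 30 min on ice, containing calmodulin and terbium anti-GST antibody. Displacement read by TR-FRET in duplicate; IC50 by logistic fitting.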
For `C[C@@H](Cn1cnnn1)Oc1cc(-c2ccn3ncc(-c4cccc(OC(F)(F)F)c4)c3n2)ccc1F` [compound 46], the IC50 was 0.01 to 0.1 µM. With `C[C@@H](Cn1cnnn1)Oc1cc(-c2ccn3ncc(-c4cccc(C(=O)O)c4)c3n2)ccc1F` [compound 7] the IC50 was < 0.01 µM. With `C[C@@H](Cn1cnnn1)Oc1cc(-c2ccn3ncc(-c4cccc(OCC#N)c4)c3n2)ccc1F` [compound 33] the IC50 was < 0.01 µM. In the case of `COc1ccnc(-c2cnc3ccc(-c4ccc(F)c(O[C@@H](CF)Cn5cnnn5)c4)nn23)c1C#N` [Example 475, 2-[6-(4-fluoro-3-{[(2R)-1-fluoro-3-(1H-tetrazol-1-yl)propan-2-yl]oxy}phenyl)imidazo[1,2-b]pyridazin-3-yl]-4-methoxypyridine-3-carbonitrile], the IC50 is reported as < 0.01 µM. `C[C@@H](Cn1cnnn1)Oc1cc(-c2ccc3ncn(-c4cccc(C(=O)N(C)C)c4C#N)c3n2)ccc1F` [compound 228] was tested, and the IC50 was > 0.1 µM. For `CCN(CC)CCNC(=O)c1cccc(-c2cnn3ccc(-c4ccc(C#N)c(O[C@@H](C)Cn5cnnn5)c4)nc23)c1` [Example 1, 3-[5-(4-cyano-3-{[(2S)-1-(1H-tetrazol-1-yl)propan-2-yl]oxy}phenyl)pyrazolo[1,5-a]pyrimidin-3-yl]-N-[2-(diethylamino)ethyl]benzamide], the IC50 was 0.01 to 0.1 µM. With `C=Cc1ccccc1-c1cnc2ccc(-c3ccc(F)c(O[C@@H](C)Cn4cnnn4)c3)nn12` [compound 190] the IC50 was < 0.01 µM. For `CC(=O)NCCCNC(=O)c1cccc(-c2cnn3ccc(-c4cccc(O[C@@H](C)Cn5cnnn5)c4)nc23)c1` [compound 102], the IC50 was < 0.01 µM. `C[C@@H](Cn1cnnn1)Oc1cc(-c2ccc3ncc(-c4cccc(OCC(C)(C)C#N)c4C#N)n3n2)ccc1F` [compound 226, 2-(2-cyano-2,2-dimethylethoxy)-6-[6-(4-fluoro-3-{[(2S)-1-(1H-tetrazol-1-yl)propan-2-yl]oxy}phenyl)imidazo[1,2-b]pyridazin-3-yl]benzonitrile] was tested, and the IC50 was < 0.01 µM. `C[C@@H](Cn1cnnn1)Oc1cc(-c2ccn3ncc(-c4ccccc4Cl)c3n2)ccc1F` [compound 133] gave an IC50 of 0.01 to 0.1 µM. With `C[C@@H](Cn1cnnn1)Oc1cc(-c2ccc3ncn(-c4ncccc4C#N)c3n2)ccc1F` [Example 150, 2-[5-(4-fluoro-3-{[(2S)-1-(1H-tetrazol-1-yl)propan-2-yl]oxy}phenyl)-3H-imidazo[4,5-b]pyridin-3-yl]pyridine-3-carbonitrile] the IC50 was < 0.01 µM. In the case of `C[C@@H](Cn1cnnn1)Oc1cc(-c2ccn3ncc(-c4ccccc4OC(F)(F)F)c3n2)ccc1F` [compound 45], the IC50 is reported as 0.01 to 0.1 µM. In the case of `C[C@@H](Cn1cnnn1)Oc1cc(-c2ccn3ncc(-c4cc[nH]n4)c3n2)ccc1F` [compound 158], the IC50 is reported as < 0.01 µM. `CCN(CC)CCNC(=O)c1cccc(-n2cnc3ccc(-c4ccc(F)c(O[C@@H](C)Cn5cnnn5)c4)nc32)c1` [compound 12] was tested, and the IC50 was < 0.01 µM. In the case of `C[C@@H](Cn1cnnn1)Oc1cc(-c2ccc3ncc(-c4cccc(OCC(F)(F)F)c4C#N)n3n2)ccc1F` [compound 214], the IC50 is reported as < 0.01 µM. For `C[C@@H](Cn1cnnn1)Oc1cc(-c2ccc3ncc(-c4cc(C(N)=O)ccc4C(N)=O)n3n2)ccc1F` [compound 184], the IC50 was > 0.1 µM. `COc1ccnc(-c2cnc3ccc(-c4ccc(F)c(O[C@@H](CO)Cn5cnnn5)c4)nn23)c1C#N` [Example 477, 2-[6-(4-fluoro-3-{[(2R)-1-hydroxy-3-(1H-tetrazol-1-yl)propan-2-yl]oxy}phenyl)imidazo[1,2-b]pyridazin-3-yl]-4-methoxypyridine-3-carbonitrile] was tested, and the IC50 was < 0.01 µM. In the case of `COCCCOc1cccc(-c2cnc3ccc(-c4ccc(F)c(O[C@@H](C)Cn5cnnn5)c4)nn23)c1C#N` [compound 172], the IC50 is reported as < 0.01 µM. `C[C@@H](Cn1cnnn1)Oc1cccc(-c2ccn3ncc(-c4ccc(N5CCOCC5)cc4)c3n2)c1` [compound 15] showed an IC50 of 0.01 to 0.1 µM. In the case of `COCOc1cccc(-c2cnc3ccc(-c4ccc(F)c(O[C@@H](C)Cn5cnnn5)c4)nn23)c1C#N` [compound 169], the IC50 is reported as < 0.01 µM. `C[C@@H](Cn1cnnn1)Oc1cccc(-c2ccn3ncc(-c4cccc(C(=O)NCCCN5CC(O)C5)c4)c3n2)c1` [compound 66] was tested, and the IC50 was < 0.01 µM. `COCCC(=O)Nc1cccc(-c2cnc3ccc(-c4ccc(F)c(O[C@@H](C)Cn5cnnn5)c4)nn23)c1C#N` [compound 182] was tested, and the IC50 was < 0.01 µM. With `CCN(CC)CCNC(=O)c1ccnc(-n2cnc3ccc(-c4ccc(F)c(O[C@@H](C)Cn5cnnn5)c4)nc32)c1` [compound 117] the IC50 was < 0.01 µM. For `CNC(=O)c1ccnc(-n2cnc3ccc(-c4ccc(F)c(O[C@@H](C)Cn5cnnn5)c4)nc32)c1` [compound 116], the IC50 was < 0.01 µM. For `C[C@@H](Cn1cnnn1)Oc1cc(-c2ccn3ncc(-c4cnn(C)c4)c3n2)ccc1F` [compound 23], the IC50 was < 0.01 µM.

Same assay, conditions: in vitro CaMKII inhibitory activity (binding assay), human CaMKIIδ; read-out: Act
In the case of `C[C@@H](Cn1cnnn1)Oc1cccc(-c2ccc3ncc(-c4ncncc4C#N)n3n2)c1` [compound 273], the IC50 is reported as 0.01 to 0.1 µM. Work on `COc1cc(OC)c(C#N)c(-n2cnc3ccc(-c4cccc(O[C@@H](C)Cn5cnnn5)n4)nc32)c1` [compound 440] yielded an IC50 of 0.01 to 0.1 µM. For `Cc1cc(-c2cnc3ccc(-c4cccc(O[C@@H](C)Cn5cnnn5)c4)nn23)c(=O)n(C)c1` [compound 335], the IC50 was < 0.01 µM. For `C[C@@H](Cn1cnnn1)Oc1cccc(-c2ccc3ncc(-c4ccccc4CO)n3n2)c1` [compound 308], the IC50 was < 0.01 µM. `C[C@@H](Cn1cnnn1)Oc1cnnc(-c2ccc3ncc(-c4cc(F)ccc4C#N)n3n2)c1` [Example 298, 4-fluoro-2-[6-(5-{[(2S)-1-(1H-tetrazol-1-yl)propan-2-yl]oxy}pyridazin-3-yl)imidazo[1,2-b]pyridazin-3-yl]benzonitrile] gave an IC50 of 0.01 to 0.1 µM. In the case of `CCOc1ccnc(-c2cnc3ccc(-c4cccc(O[C@@H](C)Cn5cnnn5)c4)nn23)c1C#N` [compound 366], the IC50 is reported as < 0.01 µM. For `COc1cc(OC)c(C#N)c(-c2cnc3ccc(-c4cccc(O[C@@H](C)Cn5cnnn5)n4)nn23)c1` [compound 456], the IC50 was < 0.01 µM. For `Cc1ccnc(-c2cnc3ccc(-c4cccc(O[C@@H](C)Cn5cnnn5)c4)nn23)c1C#N` [compound 378], the IC50 was < 0.01 µM. In the case of `CCOc1ccnc(-n2cnc3ccc(-c4ccnc(O[C@@H](C)Cn5cnnn5)c4)nc32)c1C#N` [compound 375], the IC50 is reported as 0.01 to 0.1 µM. In the case of `COc1ncnc(-c2cnc3ccc(-c4cccc(O[C@@H](C)Cn5cnnn5)c4)nn23)c1C#N` [Example 320, 4-methoxy-6-[6-(3-{[(2S)-1-(1H-tetrazol-1-yl)propan-2-yl]oxy}phenyl)imidazo[1,2-b]pyridazin-3-yl]pyrimidine-5-carbonitrile], the IC50 is reported as < 0.01 µM. `C[C@@H](Cn1cnnn1)Oc1cccc(-c2ccc3ncc(-c4cccn(CCOCC(F)(F)F)c4=O)n3n2)c1` [compound 341] was tested, and the IC50 was < 0.01 µM. `C[C@@H](Cn1cnnn1)Oc1cc(-c2ccc3ncc(-c4cc(N=S(C)(C)=O)ccc4C#N)n3n2)ccc1F` [compound 263] was tested, and the IC50 was > 0.1 µM. `COc1cc(F)cc(-c2cnc3ccc(-c4cncc(O[C@@H](C)Cn5cncn5)n4)nn23)c1C#N` [compound 443] was tested, and the IC50 was < 0.01 µM. With `C[C@@H](Cn1cnnn1)Oc1cc(-c2ccc3ncc(-c4ccsc4C(=O)O)n3n2)ccc1F` [compound 243] the IC50 was > 0.1 µM. In the case of `C[C@@H](Cn1cnnn1)Oc1cc(-c2ccc3ncc(-c4ccc(=O)[nH]c4C#N)n3n2)ccc1F` [compound 255], the IC50 is reported as < 0.01 µM. `C[C@@H](Cn1cnnn1)Oc1cccc(-c2ccc3ncc(-c4cc(F)cn(CC(F)F)c4=O)n3n2)c1` [compound 337] was tested, and the IC50 was < 0.01 µM. With `C[C@@H](Cn1cnnn1)Oc1cccc(-c2ccc3ncc(-c4cc(F)ccc4C#N)n3n2)n1` [Example 325, 4-fluoro-2-[6-(6-{[(2S)-1-(1H-tetrazol-1-yl)propan-2-yl]oxy}pyridin-2-yl)imidazo[1,2-b]pyridazin-3-yl]benzonitrile] the IC50 was < 0.01 µM. With `COc1nccnc1-c1cnc2ccc(-c3ccc(F)c(O[C@@H](C)Cn4cnnn4)c3)nn12` [compound 268] the IC50 was 0.01 to 0.1 µM. `C[C@@H](Cn1cnnn1)Oc1cccc(-c2ccc3ncn(-c4cccc(C(F)F)c4C#N)c3n2)n1` [compound 397] was tested, and the IC50 was > 0.1 µM. `C[C@@H](Cn1cnnn1)Oc1cc(F)cc(-c2ccc3ncc(-c4cccn(C)c4=O)n3n2)c1` [compound 357] was tested, and the IC50 was < 0.01 µM. With `COc1ncccc1-c1cnc2ccc(-c3cccc(O[C@@H](C)Cn4cnnn4)c3)nn12` [compound 332] the IC50 was < 0.01 µM. In the case of `C[C@@H](Cn1cnnn1)Oc1cncc(-c2ccc3ncn(-c4cc(F)cc(OC(F)F)c4C#N)c3n2)n1` [compound 406], the IC50 is reported as 0.01 to 0.1 µM. For `C[C@@H](Cn1cnnn1)Oc1cccc(-c2ccc3ncc(-c4ccn(C)c(=O)c4C#N)n3n2)c1` [compound 259, 1-methyl-2-oxo-4-[6-(3-{[(2S)-1-(1H-tetrazol-1-yl)propan-2-yl]oxy}phenyl)imidazo[1,2-b]pyridazin-3-yl]-1,2-dihydropyridine-3-carbonitrile], the IC50 was < 0.01 µM. With `COc1nccc(-c2cnc3ccc(-c4ccc(F)c(O[C@@H](C)Cn5cnnn5)c4)nn23)c1C#N` [Example 399, 4-[6-(4-fluoro-3-{[(2S)-1-(1H-tetrazol-1-yl)propan-2-yl]oxy}phenyl)imidazo[1,2-b]pyridazin-3-yl]-2-methoxypyridine-3-carbonitrile] the IC50 was < 0.01 µM. For `CNC(=O)c1c(-c2cnc3ccc(-c4ccc(F)c(O[C@@H](C)Cn5cnnn5)c4)nn23)cnn1CCCOC` [compound 235], the IC50 was > 0.1 µM. `COc1cc(F)cc(-c2cnc3ccc(-c4cccc(O[C@@H](C)Cn5cnnn5)n4)nn23)c1C#N` [Example 410, 4-fluoro-2-methoxy-6-[6-(6-{[(2S)-1-(1H-tetrazol-1-yl)propan-2-yl]oxy}pyridin-2-yl)imidazo[1,2-b]pyridazin-3-yl]benzonitrile] was tested, and the IC50 was < 0.01 µM. For `COc1ccnc(-c2cnc3ccc(-c4ccc(F)c(O[C@@H](C)Cn5cnnn5)c4)nn23)c1C#N` [Example 321, 2-[6-(4-fluoro-3-{[(2S)-1-(1H-tetrazol-1-yl)propan-2-yl]oxy}phenyl)imidazo[1,2-b]pyridazin-3-yl]-4-methoxypyridine-3-carbonitrile], the IC50 was < 0.01 µM.
